Measurements reported in patent US6653330B2, “Amide-type triazole compounds” (Sankyo Company, Limited, priority 2000, dated 2003).

Compound	melting point
C[C@@H](S[C@H]1CO[C@H](c2ccc(C(=O)Nc3ccc(C#N)c(Cl)c3)cc2)OC1)[C@](O)(Cn1cncn1)c1ccc(F)cc1F	115 °C
C[C@@H](S[C@H]1CO[C@H](c2ccc(C(=O)Nc3ccc(C#N)cc3)cc2)OC1)[C@](O)(Cn1cncn1)c1ccc(F)cc1F [Example 2, 4′-Cyano-4-[trans-5-[[(1R,2R)-2-(2,4-difluorophenyl)-2-hydroxy-1-methyl-3-(1H-1,2,4-triazol-1-yl)propyl]thio]-1,3-dioxan-2-yl]benzanilide]	176 °C
C[C@@H](C[C@H]1CO[C@H](c2ccc(C(=O)Nc3ccc(C#N)cc3)cc2)OC1)[C@](O)(Cn1cncn1)c1ccc(F)cc1F [Example 4, 4′-Cyano-4-[trans-5-[(2S,3R)-3-(2,4-difluorophenyl)-3-hydroxy-2-methyl-4-(1H-1,2,4-triazol-1-yl)butyl]-1,3-dioxan-2-yl]benzanilide]	159 °C
C[C@@H](S[C@H]1CO[C@H](c2ccc(C(=O)Nc3ccc(C#N)cc3)cc2F)OC1)[C@](O)(Cn1cncn1)c1ccc(F)cc1F [Example 5, 4′-Cyano-4-[trans-5-[[(1R,2R)-2-(2,4-difluorophenyl)-2-hydroxy-1-methyl-3-(1H-1,2,4-triazol-1-yl)propyl]thio]-1,3-dioxan-2-yl]-3-fluorobenzanilide]	110 °C
C[C@@H](S[C@H]1CO[C@H](c2cccc(C(=O)Nc3ccc(C#N)cc3)c2)OC1)[C@](O)(Cn1cncn1)c1ccc(F)cc1F [Example 6, 4′-Cyano-3-[trans-5-[[(1R,2R)-2-(2,4-difluorophenyl)-2-hydroxy-1-methyl-3-(1H-1,2,4-triazol-1-yl)propyl]thio]-1,3-dioxan-2-yl]benzanilide]	105 °C
C[C@@H](S[C@H]1CO[C@H](c2ccc(C(=O)Nc3ccc(CC#N)cc3)cc2)OC1)[C@](O)(Cn1cncn1)c1ccc(F)cc1F [Example 7, 4′-(Cyanomethyl)-4-[trans-5-[[(1R,2R)-2-(2,4-difluorophenyl)-2-hydroxy-1-methyl-3-(1H-1,2,4-triazol-1-yl)propyl]thio]-1,3-dioxan-2-yl]benzanilide]	188 °C
C[C@@H](S[C@H]1CO[C@H](c2ccc(C(=O)Nc3ccc(Cl)cc3)cc2)OC1)[C@](O)(Cn1cncn1)c1ccc(F)cc1F [Example 8, 4′-Chloro-4-[trans-5-[[(1R,2R)-2-(2,4-difluorophenyl)-2-hydroxy-1-methyl-3-(1H-1,2,4-triazol-1-yl)propyl]thio]-1,3-dioxan-2-yl]benzanilide]	210 °C
C[C@@H](S[C@H]1CO[C@H](c2ccc(C(=O)Nc3ccc(F)cc3)cc2)OC1)[C@](O)(Cn1cncn1)c1ccc(F)cc1F [Example 10, 4-[trans-5-[[(1R,2R)-2-(2,4-Difluorophenyl)-2-hydroxy-1-methyl-3-(1H-1,2,4-triazol-1-yl)propyl]thio]-1,3-dioxan-2-yl]-4′-fluorobenzanilide]	104 °C
C[C@@H](S[C@H]1CO[C@H](c2ccc(C(=O)Nc3ccc(C(F)(F)F)cc3)cc2)OC1)[C@](O)(Cn1cncn1)c1ccc(F)cc1F [Example 11, 4-[trans-5-[[(1R,2R)-2-(2,4-Difluorophenyl)-2-hydroxy-1-methyl-3-(1H-1,2,4-triazol-1-yl)propyl]thio]-1,3-dioxan-2-yl]-4′-(trifluoromethyl)benzanilide]	210 °C
C[C@@H](S[C@H]1CO[C@H](c2ccc(C(=O)Nc3ccc(OC(F)(F)F)cc3)cc2)OC1)[C@](O)(Cn1cncn1)c1ccc(F)cc1F [Example 12, 4-[trans-5-[[(1R,2R)-2-(2,4-Difluorophenyl)-2-hydroxy-1-methyl-3-(1H-1,2,4-triazol-1-yl)propyl]thio]-1,3-dioxan-2-yl]-4′-(trifluoromethoxy)benzanilide]	180 °C
C[C@@H](S[C@H]1CO[C@H](c2ccc(C(=O)Nc3ccc(SC(F)(F)F)cc3)cc2)OC1)[C@](O)(Cn1cncn1)c1ccc(F)cc1F [Example 13, 4-[trans-5-[[(1R,2R)-2-(2,4-Difluorophenyl)-2-hydroxy-1-methyl-3-(1H-1,2,4-triazol-1-yl)propyl]thio]-1,3-dioxan-2-yl]-4′-(trifluoromethylthio)benzanilide]	95 °C
Cc1ccc(NC(=O)c2ccc([C@H]3OC[C@H](S[C@H](C)[C@](O)(Cn4cncn4)c4ccc(F)cc4F)CO3)cc2)cc1 [Example 14, 4-[trans-5-[[(1R,2R)-2-(2,4-Difluorophenyl)-2-hydroxy-1-methyl-3-(1H-1,2,4-triazol-1-yl)propyl]thio]-1,3-dioxan-2-yl]-4′-methylbenzanilide]	101 °C
C[C@@H](S[C@H]1CO[C@H](c2ccc(C(=O)Nc3ccc(Br)cc3)cc2)OC1)[C@](O)(Cn1cncn1)c1ccc(F)cc1F [Example 15, 4′-Bromo-4-[trans-5-[[(1R,2R)-2-(2,4-difluorophenyl)-2-hydroxy-1-methyl-3-(1H-1,2,4-triazol-1-yl)propyl]thio]-1,3-dioxan-2-yl]benzanilide]	221 °C
C[C@@H](S[C@H]1CO[C@H](c2ccc(C(=O)Nc3ccncc3)cc2)OC1)[C@](O)(Cn1cncn1)c1ccc(F)cc1F [Example 17, 4-[trans-5-[[(1R,2R)-2-(2,4-Difluorophenyl)-2-hydroxy-1-methyl-3-(1H-1,2,4-triazol-1-yl)propyl]thio]-1,3-dioxan-2-yl]-N-(4-pyridyl)benzamide]	133 °C
C[C@@H](S[C@H]1CO[C@H](c2ccc(C(=O)Nc3ccc([N+](=O)[O-])cc3)cc2)OC1)[C@](O)(Cn1cncn1)c1ccc(F)cc1F [Example 18]	189 °C
C[C@@H](S[C@H]1CO[C@H](c2ccc(C(=O)Nc3ccc(C#N)c4ccccc34)cc2)OC1)[C@](O)(Cn1cncn1)c1ccc(F)cc1F [Example 19, N-(4-Cyano-1-naphthyl)-4-[trans-5-[[(1R,2R)-2-(2,4-difluorophenyl)-2-hydroxy-1-methyl-3-(1H-1,2,4-triazol-1-yl)propyl]thio]-1,3-dioxan-2-yl]benzamide]	109 °C
C[C@@H](S[C@H]1CO[C@H](c2ccc(C(=O)Nc3c(F)c(F)c(C#N)c(F)c3F)cc2)OC1)[C@](O)(Cn1cncn1)c1ccc(F)cc1F [Example 20, 4′-Cyano-4-[trans-5-[[(1R,2R)-2-(2,4-difluorophenyl)-2-hydroxy-1-methyl-3-(1H-1,2,4-triazol-1-yl)propyl]thio]-1,3-dioxan-2-yl]-2′,3′,5′,6′-tetrafluorobenzanilide]	182 °C
C[C@@H](S[C@H]1CO[C@H](c2ccc(C(=O)Nc3ccc(C#N)c(C#N)c3)cc2)OC1)[C@](O)(Cn1cncn1)c1ccc(F)cc1F [Example 21, 3′,4′-Dicyano-4-[trans-5-[[(1R,2R)-2-(2,4-difluorophenyl)-2-hydroxy-1-methyl-3-(1H-1,2,4-triazol-1-yl)propyl]thio]-1,3-dioxan-2-yl]benzanilide]	182 °C
CC(=O)c1ccc(NC(=O)c2ccc([C@H]3OC[C@H](S[C@H](C)[C@](O)(Cn4cncn4)c4ccc(F)cc4F)CO3)cc2)cc1 [Example 22, 4′-Acetyl-4-[trans-5-[[(1R,2R)-2-(2,4-difluorophenyl)-2-hydroxy-1-methyl-3-(1H-1,2,4-triazol-1-yl)propyl]thio]-1,3-dioxan-2-yl]benzanilide]	171 °C
CC(=O)Oc1ccc(NC(=O)c2ccc([C@H]3OC[C@H](S[C@H](C)[C@](O)(Cn4cncn4)c4ccc(F)cc4F)CO3)cc2)cc1 [Example 24, 4′-Acetoxy-4-[trans-5-[[(1R,2R)-2-(2,4-difluorophenyl)-2-hydroxy-1-methyl-3-(1H-1,2,4-triazol-1-yl)propyl]thio]-1,3-dioxan-2-yl]benzanilide]	127 °C
C[C@@H](S[C@H]1CO[C@H](c2ccc(C(=O)Nc3ccc(C#N)cc3F)cc2)OC1)[C@](O)(Cn1cncn1)c1ccc(F)cc1F [Example 25, 4′-Cyano-2′-fluoro-4-[trans-5-[[(1R,2R)-2-(2,4-difluorophenyl)-2-hydroxy-1-methyl-3-(1H-1,2,4-triazol-1-yl)propyl]thio]-1,3-dioxan-2-yl]benzanilide]	136 °C
C[C@@H](S[C@H]1CO[C@H](c2ccc(C(=O)Nc3nccs3)cc2)OC1)[C@](O)(Cn1cncn1)c1ccc(F)cc1F [Example 27, 4-[trans-5-[[(1R,2R)-2-(2,4-Difluorophenyl)-2-hydroxy-1-methyl-3-(1H-1,2,4-triazol-1-yl)propyl]thio]-1,3-dioxan-2-yl]-N-(2-thiazolyl)benzamide]	108 °C
C[C@@H](S[C@H]1CO[C@H](c2ccc(C(=O)Nc3nc4ccccc4s3)cc2)OC1)[C@](O)(Cn1cncn1)c1ccc(F)cc1F [Example 28, N-(Benzothiazol-2-yl)-4-[trans-5-[[(1R,2R)-2-(2,4-difluorophenyl)-2-hydroxy-1-methyl-3-(1H-1,2,4-triazol-1-yl)propyl]thio]-1,3-dioxan-2-yl]benzamide]	107 °C
C[C@@H](S[C@H]1CO[C@H](c2ccc(C(=O)NCc3cccc4ccccc34)cc2)OC1)[C@](O)(Cn1cncn1)c1ccc(F)cc1F [Example 29, 4-[trans-5-[[(1R,2R)-2-(2,4-Difluorophenyl)-2-hydroxy-1-methyl-3-(1H-1,2,4-triazol-1-yl)propyl]thio]-1,3-dioxan-2-yl]-N-[(1-naphthyl)methyl]benzamide]	97 °C
C[C@@H](S[C@H]1CO[C@H](c2ccc(C(=O)Nc3ccc(C(N)=O)cc3)cc2)OC1)[C@](O)(Cn1cncn1)c1ccc(F)cc1F [Example 30, 4′-Carbamoyl-4-[trans-5-[[(1R,2R)-2-(2,4-difluorophenyl)-2-hydroxy-1-methyl-3-(1H-1,2,4-triazol-1-yl)propyl]thio]-1,3-dioxan-2-yl]benzanilide]	230 °C
